The values below are quoted from earlier work in patent US20100049492A1, “METHOD AND APPARATUS FOR MODELING SKIN SENSITIZATION” (Entelos, Inc., priority 2006, published 2010).

This data set concerns lymph node (LN) proliferation. The note with it: categories based on data available in the public domain.

`Nc1ccc(C(=O)O)cc1` [PABA]: the “chemical category (skin sensitizer strength)” value (shortened to “chemical category”) was “non-sensitizers”. On to `CCCCCCCC/C=C\CCCCCCCC(=O)OCCOCC(OCCO)C1OCC(OCCO)C1OCCO` (stereo not drawn) [Tween 80], for which the “chemical category” value is reported as “non-sensitizers”. As for `O=C/C=C/c1ccccc1` [cinnamic aldehyde], the “chemical category” value is reported as “moderate sensitizers”. As for `Oc1ccc(O)cc1` [hydroquinone], the “chemical category” value is “strong sensitizers”. Regarding `CC=Cc1ccc(O)c(OC)c1` [isoeugenol], the “chemical category” value is “moderate sensitizers”. `CCO/C=C1\N=C(c2ccccc2)OC1=O` [oxazalone]: the “chemical category” value was “strong sensitizers”.
